In patent publication US11109607B2, “Oil-based compositions for enhancing oral health and general wellness in humans” (priority 2013, dated 2021):

Tests used:
[1] = test system: Staphylococcus aureus (ATCC#14775); assay: Murine systemic bacteremia model, 30-day survival; type: in vivo, mice; details: for in vivo effect on survival (in words): mice infected with 5xLD50, daily gavage 30 days; for mice surviving for 30 days (survivors/group): second study, groups of eight, 3.2 mg of each agent by gavage, vancomycin 400 μg i.p.; for mice surviving thirty days (survivors/total): summary across the in vivo studies
Experimental: Female BALB/c mice (about 15 grams to 20 grams in weight) were obtained from Taconic Farms (Germantown, N.Y.). The mice were maintained in a controlled environment at about 24° C. with a 12-hour light and 12-hour dark cycle and were acclimatized in the animal facility for about 3-5 days before testing. The mice were housed in groups of five, fed commercial rodent pellets, and given water ad libitum throughout the experiments. The Animal Welfare Board at Georgetown University Medical Center approved the protocol for the entire investigation.
In two separate experiments, groups of mice (6 and 8 respectively) infected with Staphylococcus aureus (5×LD50) were gavaged daily with oregano oil, carvacrol, monolaurin or combined oregano oil-monolaurin in 0.2 ml of olive oil for 30 days. The amount of bacterial agents administered was calculated based on the body weight of the mice. Control mice received daily gavages of either olive oil alone (negative control) or olive oil orally plus vancomycin (400 mcg) i.p. (positive control).
In the first in vivo experiment, the daily dose of oregano oil was either 2.0 μl (1.6 mg) or 4.0 μl (3.2 mg). […] In the second in vivo study, the daily dose of oregano oil was the same as the higher dose used before, i.e., 4.0 μl (3.2 mg). Monolaurin was given at the same dose; and when both agents were combined, the same individual doses were used, i.e., 3.2 mg of each. Both experiments were terminated at the end of 30 days. The body weight, the disease status, and the overall health of the mice during the experiments were recorded. The pathological status of the mice was determined by visual examination of the internal organs after their death or sacrifice at the completion of the experiment. Culturing aliquots of kidney homogenates on S.g. agar plates were tested for the renal burden of Staphylococcus aureus.
Furthermore, the in vivo therapeutic effects of the natural edible oregano oil and one of its major constituents, carvacrol, were examined in a murine systemic bacteremia model. […] Groups of six mice infected with Staphylococcus aureus (ATCC#14775) (5×LD50) were gavaged with varying amounts of oregano oil (2.0 μl 1.6 mg; and 4.0 μl 3.2 mg) or injected i.p. with vancomycin (400 μg) daily for 30 days. […] Fifty percent of the mice (3/6) receiving oregano oil (3.2 mg) survived over the thirty days, while only one of six receiving 1.6 mg oregano oil survived for 30 days. Also, 50% of those receiving vancomycin (400 μg) survived for 30 days, while all in the control group died within a three-day period. […] In contrast, numerous abscesses were noted and renal cultures were positive in all dying mice.
In a separate in vivo study, the effects of using monolaurin, either alone and in combination with oregano oil, were investigated and compared to the effects of oregano oil alone. Groups of eight mice were infected with five times the LD50 (5×LD50) of Staphylococcus aureus (A TIC #14775). Fifty percent of the mice (4/8) injected daily with vancomycin (400 μg i.p.) survived for the thirty days of study in contrast to the control group where all eight mice died within a week's time. In the three test groups, 3/8 survived for 30 days in the oregano oil group (3.2 mg), 4/8 survived in the monolaurin group (3.2 mg), and 5/8 survived in the group receiving the combination of oregano oil (3.2 mg) and monolaurin (3.2 mg). No abscesses were seen on inspection, and no bacterial growth was found in the kidney tissue of the 30-day survivors.

[2] = test system: Staphylococcus aureus (ATCC#14775); assay: Micro-broth dilution susceptibility testing (MIC/MBC); type: cell-based; details: for killing of Staphylococcus aureus in vitro (summary): summary statement
Experimental: (§1) A micro-broth dilution technique was used to determine the susceptibility of the strains of Staphylococcus aureus. Susceptibility was expressed as minimum inhibitory (MIC) and/or minimum bactericidal (MBC) concentration.
(§2) Various essential oils, carvacrol, and monolaurin were tested alone or in combination for the treatment of Staphylococcus aureus infection. Twelve essential oils were tested in the study: oregano oil, olive oil (the diluent), pumpkin oil, fenugreek oil, myrtle oil, allspice oil, sage oil, lavender oil, bay leaf oil, cumin oil, cinnamon oil, and cassia oil.
(§3) The stock solutions of oregano oil, other essential oils, olive oil, and carvacrol were dissolved in 50% ethanol-Tween 80 solvents. Antibiotics were dissolved in 50% ethanol and used as positive controls. Solvent controls (addition of carrier without essential oil and monolaurin) were also included for reference in addition to regular controls.
(§4) The Sabouraud's glucose (S.g.) broth containing varying amounts (logarithmic, serially and 2-fold diluted) of oregano oil, other essential oils, carvacrol, monolaurin and various controls were inoculated with actively dividing Staphylococcus aureus cells. The cultures were incubated for about 24 hours and about 48 hours at a temperature of about 30° C. on a metabolic rotary shaker (220 rev/min), and the growth was monitored both visually and colorimetrically (at a wavelength of about […]). The minimum inhibitory concentration (MIC) was defined as the lowest concentration required to arrest the growth of the bacteria at the end of 24 hour of incubation. Minimum bactericidal concentration (MBC) was determined by sub-culturing a 0.01 ml aliquot of the medium drawn from the culture tubes after 48 hours on S.g. agar plates and incubated further for bacterial growth. The plates were scored for growth of the bacteria colonies. The lowest concentration of the antimicrobial agent causing negative growth (fewer than three colonies) was considered as MBC. In every case, the MIC and MBC were virtually the same.
The micro dilution study was performed with another strain of Staphylococcus aureus (ATCC#14775). Although the results from the two strains (ATCC#14775 and ATCC#14154) were generally similar, there were some minor differences. […] Oregano oil provided efficacy against the ATCC#14775 strain infections at the concentration as low as 0.25 mg oregano oil. Carvacrol provided efficacy against the ATCC#14775 strain infections at a phenol content equivalent to that in 0.5 mg oregano oil.
The in vitro experiment on Staphylococcus aureus (ATCC#14775) was performed to investigate the efficacy of using monolaurin alone, using monolaurin in combination with oregano oil, or using oregano oil alone.

[3] = test system: Staphylococcus aureus (ATCC#14154); assay: as above; type: cell-based; details: for effect against Staphylococcus aureus (in words): ATCC#14154, grown in broth over 48 hours
Experimental: as §1, §2, §3, §4
A micro dilution study on Staphylococcus aureus (ATCC#14154) grown in broth over 48 hours was performed to determine the comparative effects of various antibiotics and essential oils against Staphylococcus aureus infection at the selected concentrations.

| Molecule | in vivo effect on survival (in words) [1] | mice surviving for 30 days (survivors/group) [1] | mice surviving thirty days (survivors/total) [1] | killing of Staphylococcus aureus in vitro (summary) [2] | effect against Staphylococcus aureus (in words) [3] | other results |
| --- | --- | --- | --- | --- | --- | --- |
| CCCCCCCCCCCC(=O)OCC(O)CO (stereo not shown) [monolaurin, glycerol monolaurate] | protective effect | 4/8 | 4/8 | killed Staphylococcus aureus effectively in vitro | – | growth after two days of incubation ([2]; ATCC#14775, 0.125 mg of each agent): A few Staphylococcus aureus (ATCC#14775) colonies grew |
| Cc1ccc(C(C)C)cc1O [carvacrol] | prolonged survival | – | – | killed Staphylococcus aureus effectively in vitro | – | survival time (none survived beyond) ([1]; first experiment, twelve mice, two doses equivalent to phenol content in 1.6 mg and 3.2 mg oregano oil): ≤ 21 days; renal culture after death ([1]; first in vivo study, carvacrol at phenol-equivalent doses): Staphylococcus aureus was grown out of their kidneys; in vivo effect on survival (in words) ([1]; listed as Carvacrol): delayed death but could not cure the mice; effective phenol content, as equivalent amount of oregano oil ([2]; ATCC#14775, carvacrol expressed as oregano oil equivalent): 0.5 mg; effective concentration, as comparable dose of oregano oil (phenol content) ([3]; ATCC#14154, carvacrol expressed as oregano oil equivalent): 0.5 mg; phenol content needed for the same efficacy as oregano oil ([3]; relative to one oregano oil dosage, strain not specified): twice the phenol content |
| CN[C@H](CC(C)C)C(=O)N[C@H]1C(=O)N[C@@H](CC(N)=O)C(=O)N[C@H]2C(=O)N[C@H]3C(=O)N[C@H](C(=O)N[C@H](C(=O)O)c4cc(O)cc(O)c4-c4cc3ccc4O)[C@H](O)c3ccc(c(Cl)c3)Oc3cc2cc(c3O[C@@H]2O[C@H](CO)[C@@H](O)[C@H](O)[C@H]2O[C@H]2C[C@](C)(N)[C@H](O)[C@H](C)O2)Oc2ccc(cc2Cl)[C@H]1O [vancomycin] | – | 4/8 | 7/14 | – | completely destroyed the bacteria | mice surviving for 30 days ([1]; first experiment, groups of six, 400 μg i.p. daily): 50% |
| [H]/N=C(/N)N[C@H]1[C@H](O)[C@@H](O)[C@H](O[C@@H]2O[C@@H](C)[C@](O)(C=O)[C@H]2O[C@@H]2O[C@@H](CO)[C@H](O)[C@@H](O)[C@@H]2NC)[C@@H](N/C(N)=N\[H])[C@@H]1O [Streptomycin, streptomycin] | – | – | – | – | did not completely kill the bacteria | – |
| penicillin | – | – | – | – | essentially showed no effect | – |
